Results taken from article doi:10.1101/2025.01.28.635346v1 (bioRxiv, 2025).
Bridge positions count the residues as written; N and C are the ends. Side chains are listed from the residue outwards. Peptide text beside a SMILES is read from it. * marks the point of attachment. Butanoyl(4-(4-I-phenyl)) = O=C(CCCc1ccc(I)cc1)*; PEG2 = NCCOCCOCCC(=O)O

How the values were obtained:
integrin αvβ3 [1] = molecular target: T1, integrin αvβ3 (Homo sapiens, UniProt P05106+P06756); test: AlphaLISA competition assay vs LAP, biotinylated αvβ3; type: binding
integrin αvβ6 [2] = molecular target: T2, integrin αvβ6 (Homo sapiens, UniProt P06756+P18564); test: AlphaLISA competition assay vs LAP, biotinylated αvβ6; type: binding
integrin αvβ8 [3] = molecular target: T3, integrin αvβ8 (Homo sapiens, UniProt P06756+P26012); test: AlphaLISA competition assay vs LAP, biotinylated αvβ8; type: binding
integrin αvβ5 = integrin αvβ5 (Homo sapiens, UniProt P06756+P18084); test: ELISA competition assay, integrin αvβ5; type: binding
integrin αvβ6 [4] = molecular target: T2, integrin αvβ6; test: ELISA competition assay, integrin αvβ6 binding to LAP; conditions: αvβ6 IC50, ELISA competition vs LAP; mean, n ≥ 3
integrin αvβ8 [5] = molecular target: T3, integrin αvβ8; test: ELISA competition assay, integrin αvβ8 binding to LAP
integrin α5β1 = integrin α5β1 (Homo sapiens, UniProt P05556+P08648); test: ELISA competition assay, integrin α5β1; type: binding
integrin α8β1 = integrin α8β1 (Homo sapiens, UniProt P05556+P53708); test: ELISA competition assay, integrin α8β1; type: binding
integrin αIIbβ3 = molecular target: T4, integrin αIIbβ3 (Homo sapiens, UniProt P05106+P08514); test: ELISA competition assay, integrin αIIbβ3; type: binding
T4 sequence (P08514 32-993 limits assumed): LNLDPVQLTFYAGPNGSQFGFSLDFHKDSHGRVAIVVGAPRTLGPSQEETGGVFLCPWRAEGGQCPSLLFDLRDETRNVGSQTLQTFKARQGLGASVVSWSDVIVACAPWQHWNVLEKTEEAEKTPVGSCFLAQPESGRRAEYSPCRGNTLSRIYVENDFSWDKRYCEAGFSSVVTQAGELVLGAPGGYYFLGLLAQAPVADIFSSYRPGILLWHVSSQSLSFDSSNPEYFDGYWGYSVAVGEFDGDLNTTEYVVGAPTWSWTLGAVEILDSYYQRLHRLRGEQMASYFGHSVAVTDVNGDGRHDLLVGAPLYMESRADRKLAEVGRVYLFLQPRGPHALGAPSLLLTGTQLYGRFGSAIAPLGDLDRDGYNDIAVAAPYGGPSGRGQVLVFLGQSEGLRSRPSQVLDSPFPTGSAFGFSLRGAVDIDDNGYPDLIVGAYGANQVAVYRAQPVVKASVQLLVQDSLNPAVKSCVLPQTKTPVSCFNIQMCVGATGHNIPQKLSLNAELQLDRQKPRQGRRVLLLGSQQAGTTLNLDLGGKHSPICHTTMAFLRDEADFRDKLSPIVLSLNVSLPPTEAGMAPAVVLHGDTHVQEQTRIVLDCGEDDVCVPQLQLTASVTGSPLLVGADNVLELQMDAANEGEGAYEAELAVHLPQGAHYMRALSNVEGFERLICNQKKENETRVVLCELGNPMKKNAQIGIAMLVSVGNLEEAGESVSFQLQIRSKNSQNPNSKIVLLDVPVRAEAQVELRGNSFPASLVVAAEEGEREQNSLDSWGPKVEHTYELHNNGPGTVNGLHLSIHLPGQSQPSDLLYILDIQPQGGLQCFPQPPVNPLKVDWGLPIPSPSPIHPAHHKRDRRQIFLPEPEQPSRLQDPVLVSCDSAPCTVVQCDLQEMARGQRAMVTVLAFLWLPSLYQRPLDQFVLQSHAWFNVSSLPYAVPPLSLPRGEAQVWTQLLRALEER
T4 sequence (P05106 27-718 limits assumed): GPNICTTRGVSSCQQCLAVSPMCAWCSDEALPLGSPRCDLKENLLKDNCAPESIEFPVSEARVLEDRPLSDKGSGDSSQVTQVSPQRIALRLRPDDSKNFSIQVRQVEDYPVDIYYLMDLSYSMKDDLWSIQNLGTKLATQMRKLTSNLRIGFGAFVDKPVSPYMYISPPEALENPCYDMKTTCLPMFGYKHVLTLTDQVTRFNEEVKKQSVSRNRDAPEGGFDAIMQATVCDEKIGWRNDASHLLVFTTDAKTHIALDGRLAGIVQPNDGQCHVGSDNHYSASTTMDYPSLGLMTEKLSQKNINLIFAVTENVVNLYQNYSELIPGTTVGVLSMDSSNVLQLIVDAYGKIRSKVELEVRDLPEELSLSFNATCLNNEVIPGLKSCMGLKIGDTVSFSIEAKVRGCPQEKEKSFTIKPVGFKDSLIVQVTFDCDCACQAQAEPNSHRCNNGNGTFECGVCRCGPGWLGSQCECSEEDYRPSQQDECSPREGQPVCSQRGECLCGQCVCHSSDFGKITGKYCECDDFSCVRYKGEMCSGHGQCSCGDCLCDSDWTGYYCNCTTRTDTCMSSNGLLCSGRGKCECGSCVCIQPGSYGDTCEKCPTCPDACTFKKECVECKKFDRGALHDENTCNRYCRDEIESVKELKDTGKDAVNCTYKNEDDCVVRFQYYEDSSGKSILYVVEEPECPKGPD

integrin αvβ1 = integrin αvβ1 (Homo sapiens, UniProt P05556+P06756); test: ELISA competition assay, integrin αvβ1; type: binding
integrin αvβ3 [6] = molecular target: T1, integrin αvβ3; test: ELISA competition assay, integrin αvβ3; type: binding

SMILES | IC50 (integrin αvβ3 [1]) [nM] | IC50 (integrin αvβ6 [2]) [nM] | IC50 (integrin αvβ8 [3]) [nM] | IC50 (integrin αvβ5) [nM] | IC50 (integrin αvβ6 [4]) [nM] | IC50 (integrin αvβ8 [5]) [nM] | IC50 (integrin α5β1) [nM] | IC50 (integrin α8β1) [nM] | IC50 (integrin αIIbβ3) [nM] | IC50 (integrin αvβ1) [nM] | IC50 (integrin αvβ3 [6]) [nM]
CC[C@H](C)[C@H](NC(=O)[C@H](CC(C)C)NC(=O)[C@H](CC(=O)O)NC(=O)CNC(=O)[C@H](CCCNC(=N)N)NC(=O)CNC(=O)[C@@H](NC(=O)[C@H](Cc1ccccc1)NC(=O)[C@H](Cc1ccc(O)cc1)NC(=O)[C@@H]1CCC(=O)NCC(=O)NCC(=O)N[C@@H](C)C(=O)NCC(=O)N[C@@H](Cc2c[nH]cn2)C(=O)N[C@@H](C(C)C)C(=O)N2CCC[C@H]2C(=O)N1)C(C)C)C(=O)N[C@@H](CO)C(=O)N[C@@H](Cc1ccccc1)C(=O)N[C@@H](Cc1ccc(O)cc1)C(=O)NCC(=O)O [lassotide 8] (GGAGHVPEYFVGRGDLISFYG-OH; lactam N-8; C-terminus assumed) | 2560 | 478 | 466 |  |  |  |  |  |  |  | 
CC[C@H](C)[C@H](NC(=O)[C@@H]1CCCN1C(=O)[C@@H](NC(=O)[C@H](CCCNC(=N)N)NC(=O)CNC(=O)[C@H](CC(=O)O)NC(=O)[C@H](CC(C)C)NC(=O)[C@H](Cc1ccccc1)NC(=O)[C@H](Cc1ccc(O)cc1)NC(=O)[C@@H]1CCC(=O)NCC(=O)NCC(=O)N[C@@H](C)C(=O)NCC(=O)N[C@@H](Cc2c[nH]cn2)C(=O)N[C@@H](C(C)C)C(=O)N2CCC[C@H]2C(=O)N1)[C@@H](C)O)C(=O)N[C@@H](CO)C(=O)N[C@@H](Cc1ccccc1)C(=O)N[C@@H](Cc1ccc(O)cc1)C(=O)NCC(=O)O [lassotide 9] (GGAGHVPEYFLDGRTPISFYG-OH; lactam N-8; C-terminus assumed) | > 10000 | > 10000 | 1300 |  |  |  |  |  |  |  | 
CC[C@H](C)[C@H](NC(=O)[C@@H]1CCCN1C(=O)[C@H](CC(C)C)NC(=O)[C@H](CC(=O)O)NC(=O)[C@@H]1CCCN1C(=O)[C@H](CCCNC(=N)N)NC(=O)[C@@H](NC(=O)[C@H](Cc1ccccc1)NC(=O)[C@H](Cc1ccc(O)cc1)NC(=O)[C@@H]1CCC(=O)NCC(=O)NCC(=O)N[C@@H](C)C(=O)NCC(=O)N[C@@H](Cc2c[nH]cn2)C(=O)N[C@@H](C(C)C)C(=O)N2CCC[C@H]2C(=O)N1)C(C)C)C(=O)N[C@@H](CO)C(=O)N[C@@H](Cc1ccccc1)C(=O)N[C@@H](Cc1ccc(O)cc1)C(=O)NCC(=O)O [lassotide 10] (GGAGHVPEYFVRPDLPISFYG-OH; lactam N-8; C-terminus assumed) | > 10000 | > 10000 | > 10000 |  |  |  |  |  |  |  | 
CC[C@H](C)[C@H](NC(=O)CNC(=O)[C@@H](NC(=O)[C@H](Cc1ccccc1)NC(=O)[C@H](Cc1ccc(O)cc1)NC(=O)[C@@H]1CCC(=O)NCC(=O)NCC(=O)N[C@@H](CCCNC(=N)N)C(=O)NCC(=O)N[C@@H](CC(=O)O)C(=O)N[C@@H](CC(C)C)C(=O)N2CCC[C@H]2C(=O)N1)C(C)C)C(=O)NCC(=O)N[C@H](C(=O)N1CCC[C@H]1C(=O)N[C@H](C(=O)N[C@@H](CO)C(=O)N[C@@H](Cc1ccccc1)C(=O)N[C@@H](Cc1ccc(O)cc1)C(=O)NCC(=O)O)[C@@H](C)CC)[C@@H](C)O [lassotide 11] (GGRGDLPEYFVGIGTPISFYG-OH; lactam N-8; C-terminus assumed) | > 10000 | > 10000 | > 10000 |  |  |  |  |  |  |  | 
CC(C)C[C@H](NC(=O)[C@H](CC(=O)O)NC(=O)CNC(=O)[C@H](CCCNC(=N)N)NC(=O)[C@@H](NC(=O)[C@H](Cc1ccccc1)NC(=O)[C@H](Cc1ccc(O)cc1)NC(=O)[C@@H]1CCC(=O)NCC(=O)NCC(=O)N[C@@H](CCCCN)C(=O)NCC(=O)N[C@@H](Cc2c[nH]cn2)C(=O)N[C@@H](C(C)C)C(=O)N2CCC[C@H]2C(=O)N1)C(C)C)C(=O)N[C@@H](CCC(N)=O)C(=O)N[C@@H](CO)C(=O)N[C@@H](Cc1ccccc1)C(=O)N[C@@H](Cc1ccc(O)cc1)C(=O)NCC(=O)O [lassotide 37] (GGKGHVPEYFVRGDLQSFYG-OH; lactam N-8; C-terminus assumed) |  |  |  | > 10000 | 3.1 | 9 | 944 | > 10000 | 394 | 21 | 186
CC(C)C[C@H](NC(=O)[C@H](CC(=O)O)NC(=O)CNC(=O)[C@H](CCCNC(=N)N)NC(=O)[C@@H](NC(=O)[C@H](Cc1ccccc1)NC(=O)[C@H](Cc1ccc(O)cc1)NC(=O)[C@@H]1CCC(=O)NCC(=O)NCC(=O)N[C@@H](CCCCNC(=O)CCOCCOCCNC(=O)CCCc2ccc(I)cc2)C(=O)NCC(=O)N[C@@H](Cc2c[nH]cn2)C(=O)N[C@@H](C(C)C)C(=O)N2CCC[C@H]2C(=O)N1)C(C)C)C(=O)N[C@@H](CCC(N)=O)C(=O)N[C@@H](CO)C(=O)N[C@@H](Cc1ccccc1)C(=O)N[C@@H](Cc1ccc(O)cc1)C(=O)NCC(=O)O [lassotide 48] (GGK([PEG2-Butanoyl(4-(4-I-phenyl))])GHVPEYFVRGDLQSFYG-OH; lactam N-8; C-terminus assumed) |  |  |  | > 10000 | 0.7 | 0.8 | 2590 | > 10000 | 446 | 46 | 315
